“And” between values parts separate entries of the source, which are not always exact repeats. Equal entries are not always repeated.
How the values were obtained:
[1] = system: CHO cells grown with Ac4ManNAz (azide-labeled glycans); assay: Cell-surface labeling of azido glycans on CHO cells and imaging by fluorescence microscopy; format: cell-based, Chinese hamster
Experimental: BARAC-Fluor (compound 17) was evaluated as a reagent for direct fluorescence imaging of live Chinese hamster ovary (CHO) cells. CHO cells grown either in the presence or absence of 50 μM Ac4ManNAz were treated with […] BARAC-Fluor (compound 17) for 5 min at rt, washed and then imaged (FIG. 9(a)-(h)).
CHO cells were incubated for 3 days in medium containing 50 μM Ac4ManNAz in an eight-well LabTek II chambered cover glass (Nunc). The medium was poured off, and the cells were washed three times with 200 μl of FACS buffer. The cells then were treated with a solution of BARAC-Fluor, diluted from a 1 mM stock solution in DMSO, in FACS buffer for 5 minutes at 5 μM at room temperature. The cells were also treated with Hoechst 33342 dye to stain the nucleus (1:1,000 dilution in medium of a 1 mg/ml stock solution in DMSO) as soon as possible after the addition of BARAC-Fluor. The cells washed four times with 200 μl of FACS buffer, and imaged at room temperature.
For the no-wash experiment the cells were treated as before, but were incubated in a 250 nM solution of BARAC-Fluor in FACS-buffer. After 25 minutes at room temperature Hoechst 33342 dye (1:1,000 dilution in medium of a 1 mg/ml stock solution in DMSO) was added. After an additional 5 minutes, the cells were imaged without washing away excess reagent. […]

[2] = Reaction rate of BARAC with benzyl azide (1H NMR kinetics); format: physicochemical
Experimental: The reactivity of BARAC (compound 15) was studied using benzyl azide as a model substrate. The second-order rate constant in acetonitrile at room temperature (rt) was 0.96 M^−1s^−1 (see FIG. 1), over 12-fold higher than the rate constant for DIFO under identical conditions and over 450 times higher than for an unactivated cyclooctyne. The half-life for the reaction of equimolar amounts of BARAC with benzyl azide at 10 mM was about 45 s at rt.
The reaction of BARAC (compound 15) and benzyl azide was monitored by ^1H NMR for 30 min. at 25° C. BARAC and benzyl azide were separately dissolved in CD3CN and mixed together in a 1:1 ratio at concentrations at 10 mM. A 2:1 ratio was used to determine the exact ratio of reagents based on remaining starting material upon completion of the reaction. The percent conversion was calculated by the disappearance of BARAC and benzyl azide relative to the formation of product as determined by integration. No products other than the two regioisomers of addition were apparent by ^1H NMR. The triazole isomers were produced in a ˜1:1 ratio. The second-order rate constant was determined by plotting 1/[compound 15] versus time. The plot was fit to a linear regression and the slope corresponds to the second-order rate constant. Shown in FIG. 1 are data from four replicate experiments.

[3] = Reaction rate of BARAC with 2-azido-N-isopropylacetamide (1H NMR kinetics); format: physicochemical; settings: CD3CN, 25° C., 1:1 at 9.2 mM, three replicates
Experimental: The reaction of BARAC (compound 15) and 2-azido-N-isopropylacetamide was monitored by ^1H NMR for 30 min. at 25° C. BARAC and the azidoacetamide were separately dissolved in CD3CN and mixed together in a 1:1 ratio at concentrations at close to 10 mM (9.2 mM). Hexamethyldisilane (approx 0.3 equiv) was used as an internal standard. The percent conversion was calculated by the ratio between the formation of products and hexamethyldisilane as determined by integration. No products other than the regioisomers of addition were apparent by ^1H NMR. The ratio of triazole isomers is complicated by rotamers. The second-order rate constant was determined by plotting 1/[compound 15] versus time. The plot was fit to a linear regression and the slope corresponds to the second-order rate constant. Shown are data from three replicate experiments.

[4] = Potential background reaction of BARAC with glutathione; format: physicochemical; settings: 5 mM glutathione in CD3CN:D2O (1:2), 2 mM BARAC, rt
[5] = Stability to chromatography and storage; format: physicochemical; settings: traditional chromatography; storage at room temperature
Source text: Oxidation of indole (compound 10) with excess m-CPBA opened the central rings to give the cyclic keto-amide (compound 11), which was unstable to silica-gel purification. These reaction conditions left the terminal alkene untouched. Treatment of the potassium enolate of ketone (compound 11) with trifluoromethanesulfonyl anhydride gave compound 12. Selective reaction of the terminal alkene with a nitrile oxide generated in situ from chlorooxime (compound 13) installed a linker for conjugation to a probe molecule as reported by Huisgen, R. and Gutsmiedl, et al. Huisgen, R. Angew. Chem. Int. Ed., (1963), 2, 565-598; and Gutsmiedl, K.; Wirges, C. T.; Ehmke, V.; Carell, T. Org. Lett., 2009, 11, 2405-2408. Reaction of compound 14 with CsF introduced the strained alkyne in under 30 min at rt. The synthesis of BARAC (compound 15) from compound 9 was accomplished in 6 steps in 18% overall yield (see FIG. 11).

[6] = system: Jurkat cells treated with Ac4ManNAz (cell-surface azido sialic acids, SiaNAz)
Experimental: Cultured Jurkat cells were treated with peracetylated N-azidoacetyl mannosamine (Ac4ManNAz) to introduce the corresponding azido sialic acids (SiaNAz) into their cell-surface glycoproteins and lipids.
Jurkat cells were incubated in untreated media or media containing 25 μM Ac4ManNAz. After 3 d, the cells were twice concentrated (500×g, 3 min, 4° C.) and resuspended in 10 mL FACS buffer (PBS containing 1% FCS, 2×10 mL) and cells (approx 350,000 per a well) were placed in a 96 well V-bottom plate. The cells were concentrated by centrifugation (2500×g, 3 min, 4° C.), resuspended in 200 μL cold FACS buffer, and again concentrated by centrifugation (2500×g, 3 min, 4° C.). […] After 1 h, the cells were thrice concentrated by centrifugation (2500×g, 3 min, 4° C.) and resuspended in 200 μL cold FACS buffer. Following and additional concentration by centrifugation (2500×g, 3 min, 4° C.), cells were resuspended in FACS buffer (100 μL) containing FITC-avidin (1:200 dilution of 1 mg/mL stock, Sigma-Aldrich) and incubated in the dark at 4° C. for 15 min. Following the incubation, cells were concentrated by centrifugation, resuspended in 200 μL cold FACS buffer, concentrated by centrifugation, and another FITC-avidin incubation was performed. After the second FITC-avidin labeling, the cells were thrice concentrated by centrifugation (2500×g, 3 min, 4° C.) and resuspended in 200 μL cold FACS buffer. The cells were then diluted to 400 μL for flow cytometry analysis. Flow cytometry was performed on a BD Biosciences FACSCalibur flow cytometer equipped with a 488-nm argon laser. All flow cytometry experiments were performed with three replicate samples.
Jurkat cells were incubated in the presence or absence of 25 μM Ac4ManNAz for 3 d. […] MFI=mean fluorescence intensity and has arbitrary units (Au).
Jurkat cells were incubated with (+Az) or without (−Az) 25 M Ac4ManNAz for 3 days. The cells were labeled with 1 μM cyclooctyne-biotin for various times and then treated with FITC-avidin. […] The degree of labeling was quantified by flow cytometry. The level of fluorescence was reported in mean fluorescence intensity (MFI, arbitrary unit). Error bars represent the standard deviation of three replicate experiments. […] MFI reported as difference between signal of cells +Az and signal of cells −Az.

Jurkat cells = settings: 1 μM, 1 h at 25° C., 7-AAD (FIG. 5)
Experimental: Jurkat cells were incubated in the presence (+Az, black bar) or absence (−Az, gray bar) of Ac4ManNAz for 3 d. […] Prior to flow cytometry analysis, half the cells were treated with 7-amino-actinomycin D (7-AAD) following the procedure reported at http://www.bdbiosciences.com/external_files/pm/doc/tds/cell_bio/live/web_enabled/68981E—559925.pdf. The samples were diluted and analyzed by flow cytometry. The error bars represent standard deviations from three replicate samples.
In all plots, the x-axis indicates the degree of cell-surface glycan labeling as measured by FITC fluorescence (FL1). For the plots shown if FIG. 6(a)-(d), the y-axis represents the degree of 7-AAD (FL3, cell viability marker).

With O=C(OCc1ccc(C2=NOC(CN3C(=O)c4ccccc4C#Cc4ccccc43)C2)cc1)N1CCN(C(=O)c2ccccc2-c2c3ccc(=O)cc-3oc3cc(O)ccc23)CC1 (stereo not drawn) [BARAC-Fluor] the “labeling in no-wash experiment” value ([1]; 250 nM, 30 min at rt, imaged without washing (FIG. 9(i)-(p))) was “significant labeling above the background” and the “cell surface fluorescence of azide-labeled cells” value ([1]; 5 μM, 5 min at rt, washed, 50 μM Ac4ManNAz (FIG. 9(a)-(h))) was “significant cell surface fluorescence”.
With O=C1c2ccccc2C#Cc2ccccc2N1CC1CC(c2ccc(CO)cc2)=NO1 (stereo not drawn) [BARAC] the second-order rate constant ([2]; benzyl azide, acetonitrile (CD3CN), rt (25° C.), 1:1 at 10 mM) was 0.96 M⁻¹ s⁻¹ and 0.96 ± 0.04 M⁻¹ s⁻¹, the “times higher rate constant than an unactivated cyclooctyne” value ([2]; versus unactivated cyclooctyne) was “over 450 times” and the second-order rate constant [3] was 0.64 ± 0.06 M⁻¹ s⁻¹. For the same compound, the half-life at 2 mM [4] was 1440 min and the stability [5] was “stable to traditional chromatography and storage at room temperature”.
In the case of BARAC-biotin, the “cell labeling at low concentration” value ([6]; 50 nM, 1 h, Jurkat (FIG. 3)) was “significant cell labeling”, the “labeling compared with DIFO-biotin and DIBO-biotin” value ([6]; 1 μM cyclooctyne-biotin, after 1 h (FIG. 8(b))) was “more labeling than DIFO-biotin and DIBO-biotin” and the “fold higher signal than either DIFO-biotin or DIBO-biotin” value ([6]; 1 μM, after 1 min (FIG. 8(c))) was 10 fold. For the same compound, the azide-specific cell labeling ([6]; Jurkat ±25 μM Ac4ManNAz 3 d, reagent 1 h, versus FITC-avidin alone (FIG. 3)) was “robust azide-specific labeling with no significant background labeling” and the “cytotoxicity compared to cells treated with no cyclooctyne reagent” value (Jurkat cells) was “not accompanied by any cytotoxicity”.

Source: patent US8703936B2, “Compositions and methods for modification of biomolecules” (The Regents of the University of California, priority 2010, dated 2014)
